Experimental data reported in patent US6638953B2, “Indole derivatives as 5-HT receptor antagonist” (SmithKline Beecham p.l.c., priority 1995, dated 2003).

Key:
[1] = test system: MCPP-induced Hypolocomotion; test: Reversal of MCPP-induced hypolocomotion; assay type: in vivo; details: po, procedure of WO 94/04533, read-out: ID50 (the source's name)
Text: Reversal of MCPP-induced Hypolocomotion

Row | melting point [°C] | Structure (SMILES) | ED50 [1] [mg/kg]
1 | 205 to 207 | COc1cc2c(cc1C(F)(F)F)N(C(=O)Nc1ccc(OCc3ccncc3)cc1)CC2 [Example 54, 5-Methoxy-6-trifluoromethyl-1-[4-(pyridin-4-ylmethyloxy)phenyl Carbamoyl]indoline] | 0.5 to 5.5
2 | 187 to 189 | COc1cc2c(cc1C(F)(F)F)N(C(=O)Nc1ccc(OCc3ccncc3)nc1)CC2 [Example 55, 5-Methoxy-6-trifluoromethyl-1-[6-(pyridin-4-ylmethyloxy)pyridin-3-ylcarbamoyl]indoline] | 0.5 to 5.5
3 | 210 to 212 | COc1cc2c(cc1C(F)(F)F)N(C(=O)Nc1ccc(F)c(-c3cccnc3)c1)CC2 [Example 77, 1-[4-Fluoro-3-(3-pyridyl)phenylcarbamoyl]-5-methoxy-6-trifluoromethyl Indoline] | 0.5 to 5.5
4 | 227 to 230 | COc1cc2c(cc1C(F)(F)F)N(C(=O)Nc1ccc(Oc3cccnc3C)nc1)CC2 [Example 81, 5-Methoxy-6-trifluoromethyl-1-[6-(2-methylpyridin-3-yloxy)pyridin-3-ylcarbamoyl]indoline] | 0.5 to 5.5
